{
  "source": "patent US8440670B2",
  "about": "“Pyridopyrazindione derivative and its use as an antiulcer drug” (Innovative Pharmacology Research OOO (IPHAR), priority 2010, dated 2013)",
  "key": {"[1]": {"molecular_target": "T1, H,K-ATPase of rabbit gastric mucosa (Oryctolagus cuniculus, UniProt P27112)", "T1 construct": "a white layer was seen on the borderline of 4% and 12% Ficoll that was a microsome fraction, enriched with H,K-ATPase; from tissue; host or cells: rabbit gastric (stomach) mucosa microsomes", "T1 sequence (P27112 whole entry)": "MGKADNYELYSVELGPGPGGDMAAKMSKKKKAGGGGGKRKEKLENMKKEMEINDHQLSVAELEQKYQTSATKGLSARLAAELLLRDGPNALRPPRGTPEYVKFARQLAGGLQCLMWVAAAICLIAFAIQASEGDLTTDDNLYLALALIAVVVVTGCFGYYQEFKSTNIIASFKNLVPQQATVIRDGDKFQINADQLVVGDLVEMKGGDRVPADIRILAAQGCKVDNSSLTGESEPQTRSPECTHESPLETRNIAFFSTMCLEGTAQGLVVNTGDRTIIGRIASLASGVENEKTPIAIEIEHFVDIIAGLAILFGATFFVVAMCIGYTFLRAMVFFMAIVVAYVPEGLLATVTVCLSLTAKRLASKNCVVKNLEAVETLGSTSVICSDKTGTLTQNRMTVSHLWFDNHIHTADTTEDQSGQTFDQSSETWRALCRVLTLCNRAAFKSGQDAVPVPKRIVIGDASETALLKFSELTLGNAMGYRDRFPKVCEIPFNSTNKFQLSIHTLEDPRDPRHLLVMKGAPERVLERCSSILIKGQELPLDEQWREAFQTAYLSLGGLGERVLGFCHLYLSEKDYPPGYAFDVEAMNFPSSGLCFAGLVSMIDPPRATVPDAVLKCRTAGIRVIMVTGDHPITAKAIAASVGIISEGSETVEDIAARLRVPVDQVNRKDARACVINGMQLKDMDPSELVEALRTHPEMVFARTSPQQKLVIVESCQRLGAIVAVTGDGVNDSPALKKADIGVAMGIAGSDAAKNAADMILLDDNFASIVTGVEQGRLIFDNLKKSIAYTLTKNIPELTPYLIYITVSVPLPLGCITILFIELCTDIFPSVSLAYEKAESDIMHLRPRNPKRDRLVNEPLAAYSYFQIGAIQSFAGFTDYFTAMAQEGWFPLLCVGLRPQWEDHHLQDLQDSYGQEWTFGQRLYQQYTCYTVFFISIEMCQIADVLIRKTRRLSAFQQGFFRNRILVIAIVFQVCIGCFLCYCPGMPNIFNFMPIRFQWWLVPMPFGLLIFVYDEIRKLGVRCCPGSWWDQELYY", "T1 sequence (P18597 whole entry partner)": "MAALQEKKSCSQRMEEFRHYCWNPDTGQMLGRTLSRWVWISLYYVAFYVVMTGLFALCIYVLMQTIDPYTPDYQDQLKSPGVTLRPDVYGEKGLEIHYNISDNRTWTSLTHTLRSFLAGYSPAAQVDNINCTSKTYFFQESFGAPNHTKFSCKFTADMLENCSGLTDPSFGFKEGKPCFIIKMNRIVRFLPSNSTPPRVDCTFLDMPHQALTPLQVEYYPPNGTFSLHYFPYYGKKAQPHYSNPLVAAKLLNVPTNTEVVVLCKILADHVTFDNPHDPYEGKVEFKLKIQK", "experiment": "Action on enzyme activity of H,K-ATPase of rabbit gastric mucosa (inorganic phosphate from ATP hydrolysis)", "type": "biochemical", "conditions": "for IC50: read-out: I50, inhibition of H,K-ATPase", "method": "Microsome preparation, enriched with H+, K+-ATPase, was produced from the rabbit stomach mucosa using a method proposed by Farley and Faller.\nGastric mucosa was produced from a decapitated rabbit. All operations were carried out in ice. The stomach was cut at the greatest curve line, washed and scrubbed. Obtained mucosa was frozen and kept at −80° C. temperature.\nTo obtain a microsome preparation enriched with H,K-ATPase, gastric mucosa was defrozen and homogenized in extraction medium (0.25 mol sucrose, 5 mmol PIPES, 20 mmol Tris (THAM), ph 7.4) by a Polytron-class homogenizer (max rotations 30/sec). Mass ratio of tissue to extraction medium—1:20.\nThe homogenate was then centrifuged for 10 min at 10000 g. The sediment was discarded and supernatant was them centrifuged for 1 hour at 100000 g. The produced sediment was re-suspended in extraction medium (using the minimal volume necessary for re-suspension). The suspension was layered above Ficoll 400, prepared in the extraction medium: 12% Ficoll solution, 4% Ficoll solution. It was further centrifuged for 180 min at 100000 g. After centrifuging, a white layer was seen on the borderline of 4% and 12% Ficoll that was a microsome fraction, enriched with H,K-ATPase. The fraction was collected, divided into aliquots and kept at −80° C.\nThe effect was measured by the growth of inorganic phosphate that is produced during ATP hydrolysis. The concentration was measured using Ratbun and Betlah method. The incubation medium contained: 30 mmol imidazole, ph 7.4, 3 mmol MgCl2, 130 mmol NaCl, 20 mmol KCl, 3 mmol ATP, 2 mmol ouabain, 0.1 mmol EGTA, 2.25 μmol valinomycin, 5 mmol NaN3, 5 μmol of CCCP (Carbonyl cyanide m-chlorophenyl hydrazone).\nIncubation medium and defrozen and homogenized microsome fraction were added into incubation sample. The sample was incubated for 20 min at 37° C., then the reaction was stopped by a cold stop-solution (3 mol sodium acetate, 3.7% formaldehyde, pH 4.3).\nTo evaluate the content of phosphate, produced during enzymatic hydrolysis of ATP, 2% ammonium molybdate solution and tin chloride solution (3 mg/ml) was into the sample. After the appearance of blue color, after 15 minutes, the samples were studied by colorimetry using wavelength of 650 nm\nThe H,K-ATPase activity was determined as activity inhibited by 0.1 mmol SCH-28080. […] The concentration of the studied compound was varied in range of 10^−8 to 10^−4 mol.\nPossible competition between compound I and potassium ions was studied. To achieve this, the relation of H,K-ATPase and KCl concentration was studied, and then the inhibitory action of compound I on this enzyme in saturated (20 μmol) and unsaturated (2 μmol) concentrations of KCl was studied."}, "[2]": {"tested_on": "basal gastric acid secretion", "experiment": "Influence on basal secretion in rats (pylorus ligature)", "type": "in vivo", "method": "2.1. Studying the influence of the compound on basal secretion in rats.\nThe study was conducted using male rats weighting 180-200 g. The animals were deprived of food for 24 hours, water access was not limited. Using ether anesthesia their abdomens were opened and a ligature put on the pylorus. […] The studied compound was administered in 100 mg/kg dose as water suspension, with the addition of Tween-80, 60 minutes before the ligature of pylorus. Control animals were given distilled water with the addition of Tween-80. Omeprazole in 50 mg/kg dose and famotidine in 25 and 50 mg/kg doses were used as drugs of comparison."}, "[3]": {"tested_on": "stimulated gastric acid secretion", "experiment": "Gastric secretion stimulated by histamine, pentagastrin and 1-aminopyrene", "type": "in vivo, rats", "design": "inhibition of 1-aminopyrene-induced secretion: concentration or dose not given beside the values", "method": "2.2. Studying gastric secretion stimulated by histamine, pentagastrin and 1-aminopyrene.\nThe study was conducted using male rats weighting 180-200 g. The animals were deprived of food for 24 hours, water access was not limited. Before putting a ligature on the pylorus, one group of animals was administered histamine (2.5 mg/kg) subcutaneously, second group was administered pentagastrin ([…]) subcutaneously, third group was administered 1-aminopyrene 1 mg/kg. The studied compound was administered in 100 mg/kg dose as water suspension, with the addition of Tween-80,\n1 and 3 hours before the ligature of pylorus. Control animals were given distilled water with the addition of Tween-80. Omeprazole in 50 mg/kg dose and famotidine in 25 and 50 mg/kg doses were used as the drugs of comparison. 4 hours after the operation stomach contents were studied: secretion volume per 100 g of animal mass, gastric acid pH, free hydrochloric acid and general acidity of gastric acid."}, "intestinal peristalsis": {"tested_on": "intestinal peristalsis", "experiment": "Intestinal peristalsis study (activated charcoal)", "type": "in vivo", "conditions": "mice, given 60 minutes before activated charcoal", "method": "3.1. Studying intestinal peristalsis.\nThe studied compounds were administered to male mice (body weight 22-24 g) by a tube into the stomach 60 minutes before the administration of activated charcoal (0.3 ml of 10% suspension into the stomach). After 2 hours the animals were sacrificed by CO2 and the length of small intestine filled with charcoal was measured in cm. Control group animals were administered 0.3 ml of water, cerucal in 25 mg/kg dose was chosen as the drug of comparison."}, "[4]": {"type": "in vivo", "text": "Studying the Toxicity (LD50) of Studied Compounds Following Single Administration"}, "H,K-ATPase": {"molecular_target": "H,K-ATPase (Homo sapiens, UniProt P20648)", "sequence (P20648 whole entry)": "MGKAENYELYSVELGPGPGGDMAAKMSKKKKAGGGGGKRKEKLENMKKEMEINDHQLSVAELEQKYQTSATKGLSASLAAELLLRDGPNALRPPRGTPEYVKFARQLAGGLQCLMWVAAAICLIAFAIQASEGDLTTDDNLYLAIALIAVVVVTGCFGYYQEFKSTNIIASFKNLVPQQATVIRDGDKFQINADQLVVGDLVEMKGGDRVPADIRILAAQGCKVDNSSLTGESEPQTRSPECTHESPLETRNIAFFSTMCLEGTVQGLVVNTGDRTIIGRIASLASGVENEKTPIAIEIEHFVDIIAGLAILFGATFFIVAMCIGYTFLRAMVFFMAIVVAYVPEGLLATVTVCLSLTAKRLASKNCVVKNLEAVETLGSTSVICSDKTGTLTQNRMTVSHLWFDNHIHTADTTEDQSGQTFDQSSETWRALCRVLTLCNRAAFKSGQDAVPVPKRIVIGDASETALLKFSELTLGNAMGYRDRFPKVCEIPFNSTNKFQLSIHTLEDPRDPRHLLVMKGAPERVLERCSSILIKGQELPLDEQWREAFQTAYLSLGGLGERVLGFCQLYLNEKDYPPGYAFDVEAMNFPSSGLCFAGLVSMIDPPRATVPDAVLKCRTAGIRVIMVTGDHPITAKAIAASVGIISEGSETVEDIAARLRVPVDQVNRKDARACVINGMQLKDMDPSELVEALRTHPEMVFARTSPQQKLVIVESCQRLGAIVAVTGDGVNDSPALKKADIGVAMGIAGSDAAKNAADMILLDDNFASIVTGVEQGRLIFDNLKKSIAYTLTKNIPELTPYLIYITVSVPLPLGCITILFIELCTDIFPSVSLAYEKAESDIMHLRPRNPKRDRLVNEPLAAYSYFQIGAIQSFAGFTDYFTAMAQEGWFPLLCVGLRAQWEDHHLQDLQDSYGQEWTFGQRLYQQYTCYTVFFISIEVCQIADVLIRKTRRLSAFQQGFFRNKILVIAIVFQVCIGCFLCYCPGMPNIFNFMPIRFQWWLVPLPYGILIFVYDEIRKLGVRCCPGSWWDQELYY", "sequence (P51164 whole entry partner)": "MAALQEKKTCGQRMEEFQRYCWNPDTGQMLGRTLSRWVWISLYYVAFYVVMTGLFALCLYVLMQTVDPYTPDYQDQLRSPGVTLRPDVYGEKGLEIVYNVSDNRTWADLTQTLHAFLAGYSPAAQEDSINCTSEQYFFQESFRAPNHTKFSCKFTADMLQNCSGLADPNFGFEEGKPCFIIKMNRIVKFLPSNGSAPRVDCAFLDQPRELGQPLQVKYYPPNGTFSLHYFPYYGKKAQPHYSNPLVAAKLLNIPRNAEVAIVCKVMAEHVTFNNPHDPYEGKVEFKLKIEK", "conditions": "K+-competitive; read-out: Ki (inhibition constant); cited from earlier work"}},
  "note": "Where two headings read alike, the source gives them in different places.",
  "data": [
    {"molecule": "CCOc1ccc(CCN2CC(=O)N3CCCC(C4=CC(=O)C=CC4O)=C3C2=O)cc1", "note": "(centres unmarked) [Compound I, 9-(quinonil-2)-2-p-ethoxyphenylethyl-4,5,6,7,8,9,10,11-octahydropyrido[1,2-a]pyrazindione-1,4]", "values": [
      {"measurement": "IC50", "setting": "[1]; 2 μmol KCl (unsaturated)", "result": 10000, "unit": "nM"},
      {"measurement": "IC50", "setting": "[1]; 20 μmol KCl (saturated)", "result": 1000, "unit": "nM"},
      {"measurement": "competition with K+ ions", "setting": "[1]; 2 and 20 μmol KCl", "result": "does not compete with K+ ions"},
      {"measurement": "reversibility of effect on H,K-ATPase", "setting": "[1]; dilution of enzyme-inhibitor complex", "result": "reversible"},
      {"measurement": "inhibition of basal gastric acid secretion level", "setting": "[2]; 100 mg/kg, time not stated", "result": "does not inhibit basal gastric acid secretion level"},
      {"measurement": "inhibition of histamine-induced secretion", "setting": "[3]; after 3 hours", "result": 57, "unit": "%"},
      {"measurement": "inhibition of histamine-induced secretion", "setting": "[3]; one hour after administration", "result": 40, "unit": "%"},
      {"measurement": "inhibition of 1-aminopyrene-induced secretion", "setting": "[3]; time not stated", "result": 50, "unit": "%"},
      {"measurement": "inhibition of pentagastrin-induced secretion", "setting": "[3]; time not stated", "result": "about 54%"},
      {"measurement": "slowing of intestinal peristalsis", "setting": "intestinal peristalsis", "result": "does not influence peristalsis"},
      {"measurement": "general toxicity", "setting": "[4]; in vivo", "result": "low-toxic"}
    ]},
    {"molecule": "CNc1nc2c(C)cccc2c2c1CCN2c1ccccc1C", "note": "[SK&F96356]", "values": [
      {"measurement": "Ki", "setting": "H,K-ATPase", "result": 70, "unit": "nM"}
    ]},
    {"molecule": "NC(N)=Nc1nc(CSCCC(N)=NS(N)(=O)=O)cs1", "note": "[famotidine]", "values": [
      {"measurement": "inhibition of basal secretion", "setting": "[2]; after three hours", "result": 80, "unit": "%"},
      {"measurement": "inhibition of basal secretion", "setting": "[2]; one hour after administration", "result": 56, "unit": "%"},
      {"measurement": "inhibition of 1-aminopyrene-induced secretion", "setting": "[3]; after 1 hour", "result": 36, "unit": "%"},
      {"measurement": "inhibition of 1-aminopyrene-induced secretion", "setting": "[3]; after 3 hours", "result": 40, "unit": "%"},
      {"measurement": "inhibition of histamine-induced secretion", "setting": "[3]; after 3 hours", "result": 95, "unit": "%"},
      {"measurement": "inhibition of histamine-induced secretion", "setting": "[3]; one hour after administration", "result": 90, "unit": "%"},
      {"measurement": "inhibition of pentagastrin-induced secretion", "setting": "[3]; time not stated", "result": 40, "unit": "%"},
      {"measurement": "slowing of intestinal peristalsis", "setting": "intestinal peristalsis", "result": "does not influence peristalsis"}
    ]},
    {"molecule": "COc1ccc2[nH]c([S+]([O-])Cc3ncc(C)c(OC)c3C)nc2c1", "note": "(centres unmarked) [omeprazole]", "values": [
      {"measurement": "inhibition of basal secretion", "setting": "[2]; after three hours", "result": 40, "unit": "%"},
      {"measurement": "inhibition of basal secretion", "setting": "[2]; one hour after administration", "result": 25, "unit": "%"},
      {"measurement": "inhibition of histamine-induced secretion", "setting": "[3]; after 3 hours", "result": 80, "unit": "%"},
      {"measurement": "inhibition of histamine-induced secretion", "setting": "[3]; one hour after administration", "result": 70, "unit": "%"},
      {"measurement": "inhibition of 1-aminopyrene-induced secretion", "setting": "[3]; time not stated", "result": "about 90%"},
      {"measurement": "inhibition of pentagastrin-induced secretion", "setting": "[3]; time not stated", "result": "about 90%"},
      {"measurement": "slowing of intestinal peristalsis", "setting": "intestinal peristalsis", "result": 35, "unit": "%"},
      {"measurement": "general toxicity", "setting": "[4]; single administration", "result": "low-toxic"}
    ]},
    {"molecule": "SCH-28080", "values": [
      {"measurement": "inhibition of H,K-ATPase activity", "setting": "[1]; 0.1 mmol inhibitor", "result": "about 30%"}
    ]}
  ]
}
